# Results as given in the NIST ThermoML archive (doi:10.1016/j.tca.2017.12.024).
# ± gives the expanded uncertainty stated by the source.
# Legend:
# [1] = Crystal; DTA
# [2] = Molar enthalpy of transition or fusion; conditions: Crystal; DSC
SMILES,Normal melting temperature [1],Molar enthalpy of transition or fusion [2]
CCCCCCCCCC(=O)O [decanoic acid],32.00 ± 3 °C,25 ± 5 kJ/mol
CCCCCCCCCCCC(=O)O [dodecanoic acid],43.60 ± 3 °C,35.3 ± 7 kJ/mol
CCCCCCCCCCCCCCCC(=O)O [hexadecanoic acid],61.70 ± 3 °C,52.8 ± 11 kJ/mol
CCCCCCCCCCCCCCCCCC(=O)O [octadecanoic acid],68.40 ± 3 °C,60 ± 12 kJ/mol
CCCCCCCCCCCCCC(=O)O [tetradecanoic acid],54.70 ± 3 °C,42.5 ± 8.4 kJ/mol
